Data published in US12286389B2, “Crystalline form a of 2, 2-bis(4-fluorophenyl)-2-phenylacetamide and preparation method therefor and application thereof” (SHENZHEN RENTAI PHARMATECH LTD., priority 2019, dated 2025).

Columns and labels:
Type in all cases: physicochemical
[1] = High-temperature stability of the crystal form (XRPD comparison with day 0); details: 60° C., XRPD vs day 0
Description: (2) High-temperature stability: the test sample is placed at a temperature of 60° C. for 5 days and 10 days, respectively, to test the stability of the crystal form, which are compared with XRPD pattern of the crystal form A on day 0.
(2) High-temperature stability: by referring to the same method of high-temperature stability test for crystal A, the test sample is placed at a temperature of 60° C. for 5 days to test the stability of the crystal form, which is compared with XRPD pattern of the crystal form I on day 0.

[2] = Light stability of the crystal form (XRPD comparison with day 0); details: 25° C., 4500 Lux, XRPD vs day 0
Description: (1) Light stability: the test sample is placed in an environment having a temperature of 25° C. and a light condition of 4500 Lux for 5 days and 10 days, respectively, to test the stability of the crystal form, which are compared with XRPD pattern of the crystal form A on day 0.
(1) Light stability: by referring to the same method of light stability test for crystal A, the test sample is placed in an environment having a temperature of 25° C. and a light condition of 4500 Lux for 5 days to test the stability of the crystal form, which is compared with XRPD pattern of the crystal form I on day 0.

[3] = High-humidity stability 2 of the crystal form (XRPD comparison with day 0); details: 75% RH, 40° C., XRPD vs day 0
Description: (§1) (4) High-humidity stability 2: the test sample is placed in an environment having a humidity of 75% RH and a temperature of 40° C. for 5 days and 10 days, respectively, to test the stability of the crystal form, which are compared with XRPD pattern of the crystal form A on day 0.
as §1, with “2: by referring to the same method of high-humidity stability test 2 for crystal A,” for “2:”, “days” for “days and 10 days, respectively,”, “I” for “A”

[4] = High-humidity stability 1 of the crystal form (XRPD comparison with day 0); details: 92.5% RH, 25° C., XRPD vs day 0
Description: (§2) (3) High-humidity stability 1: the test sample is placed in an environment having a humidity of 92.5% RH and a temperature of 25° C. for 5 days and 10 days, respectively, to test the stability of the crystal form, which are compared with XRPD pattern of the crystal form A on day 0.
as §2, with “1: by referring to the same method of high-humidity stability test 1 for crystal A,” for “1:”, “days” for “days and 10 days, respectively,”, “I” for “A”

[5] = Hygroscopicity study by dynamic vapor sorption (DVS); details: 25° C., RH 10% per step, 10 min per step
Description: Dynamic Vapor Sorption DVS
Model: DVS intrinsic (SMS, British);
Method: 25° C., relative humidity is stepped up at a rate of 10%, the judgment standard is change in moisture content is <0.02% over a 10-minute period.
Dynamic vapor sorption (DVS) experiment are performed for crystal form A in Example 2 to obtain DVS curves under the following conditions: the temperature is 25° C., the relative humidity (RH) is stepped up from RH 0 to RH 90% at a rate of RH 10% per step, with 10 min for each step to reach equilibrium.

For `NC(=O)C(c1ccccc1)(c1ccc(F)cc1)c1ccc(F)cc1` [crystal form I, 2,2-bis(4-fluorophenyl)-2-phenylacetamide, reference compound], the “high-temperature stability of the crystal form” value ([1]; 5 days) was “unstable under high temperatures and easily transforms into crystal form A”, the “light stability of the crystal form” value ([2]; 5 days) was “unstable under lights and easily transforms into crystal form A” and the “high-humidity stability 2 of the crystal form” value ([3]; 5 days) was “unstable under high humidity and easily transforms into crystal form A”. For the same molecule, the “high-humidity stability 1 of the crystal form” value ([4]; 5 days) was “unstable under high humidity and easily transforms into crystal form A”.
In the case of `NC(=O)C(c1ccccc1)(c1ccc(F)cc1)c1ccc(F)cc1` [crystal form A, 2,2-bis(4-fluorophenyl)-2-phenylacetamide], the “high-temperature stability of the crystal form” value ([1]; 5 days and 10 days) is reported as “good high-temperature stability”, the “light stability of the crystal form” value ([2]; 5 days and 10 days) is reported as “good light stability” and the “weight change in each step of 10 min” value [5] is reported as “less than 0.02%”. The “high-humidity stability 2 of the crystal form” value ([3]; 5 days and 10 days) was “good high-humidity stability” and the “high-humidity stability 1 of the crystal form” value ([4]; 5 days and 10 days) was “good high-humidity stability”.
